Assay results: PMC7327383, “The affinity and selectivity of α‐adrenoceptor antagonists, antidepressants, and antipsychotics for the human α1A, α1B, and α1D‐adrenoceptors” (Pharmacology Research & Perspectives, 2020)
Like-named read-outs stand apart in the source and are kept apart here. Blank lines part the entries; values can stand above or below the compound they belong to.

Columns and labels:
[1] = molecular target: T1, full-length human α1D-adrenoceptor (Homo sapiens, UniProt P25100); assay: [3H]prazosin whole-cell competition binding, CHO-α1D cells
T1 sequence (P25100 1-572): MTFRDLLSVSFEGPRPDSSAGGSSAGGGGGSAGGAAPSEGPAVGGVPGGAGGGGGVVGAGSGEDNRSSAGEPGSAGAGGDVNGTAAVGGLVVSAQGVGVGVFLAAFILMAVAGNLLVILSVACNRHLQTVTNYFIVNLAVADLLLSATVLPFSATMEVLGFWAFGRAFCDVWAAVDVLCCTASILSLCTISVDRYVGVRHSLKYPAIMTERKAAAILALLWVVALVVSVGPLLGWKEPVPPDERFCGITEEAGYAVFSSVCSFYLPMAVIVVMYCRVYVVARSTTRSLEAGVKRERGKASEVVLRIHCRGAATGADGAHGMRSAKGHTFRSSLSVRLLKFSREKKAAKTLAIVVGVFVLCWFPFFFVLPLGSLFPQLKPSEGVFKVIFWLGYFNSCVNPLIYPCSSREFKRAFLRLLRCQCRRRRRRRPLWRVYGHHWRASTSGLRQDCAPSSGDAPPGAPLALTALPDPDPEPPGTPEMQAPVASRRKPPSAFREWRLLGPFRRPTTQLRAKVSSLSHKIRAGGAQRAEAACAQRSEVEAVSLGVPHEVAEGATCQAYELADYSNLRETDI

[2] = molecular target: T2, human α1B-adrenoceptor (Homo sapiens, UniProt P35368); assay: [3H]prazosin whole-cell competition binding, CHO-α1B cells; conditions: for IC50: read-out: Log IC50 α1B (converted)
T2 construct: CHO cells stably expressing either the full‐length human α1A, α1B, or α1D‐adrenoceptor
T2 sequence (P35368 1-520): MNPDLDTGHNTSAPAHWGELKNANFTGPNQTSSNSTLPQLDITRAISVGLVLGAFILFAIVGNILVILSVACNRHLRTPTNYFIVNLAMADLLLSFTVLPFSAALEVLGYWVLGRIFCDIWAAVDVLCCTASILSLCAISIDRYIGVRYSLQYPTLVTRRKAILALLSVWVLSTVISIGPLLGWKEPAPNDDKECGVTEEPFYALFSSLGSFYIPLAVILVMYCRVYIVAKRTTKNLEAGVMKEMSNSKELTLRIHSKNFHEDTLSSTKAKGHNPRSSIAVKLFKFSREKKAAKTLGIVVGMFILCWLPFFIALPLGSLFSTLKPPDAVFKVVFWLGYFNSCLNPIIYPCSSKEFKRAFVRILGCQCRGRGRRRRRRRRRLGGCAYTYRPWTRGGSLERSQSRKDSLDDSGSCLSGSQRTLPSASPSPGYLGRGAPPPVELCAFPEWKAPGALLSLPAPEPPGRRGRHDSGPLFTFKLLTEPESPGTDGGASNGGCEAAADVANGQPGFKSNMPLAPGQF

[3] = molecular target: T3, human α1A-adrenoceptor (Homo sapiens, UniProt P35348); assay: [3H]prazosin whole-cell competition binding, CHO-α1A cells; conditions: single-component inhibition curve; given as log KD (negative); mean ± SE mean
T3 construct: CHO cells stably expressing either the full‐length human α1A, α1B, or α1D‐adrenoceptor
T3 sequence (P35348 1-466): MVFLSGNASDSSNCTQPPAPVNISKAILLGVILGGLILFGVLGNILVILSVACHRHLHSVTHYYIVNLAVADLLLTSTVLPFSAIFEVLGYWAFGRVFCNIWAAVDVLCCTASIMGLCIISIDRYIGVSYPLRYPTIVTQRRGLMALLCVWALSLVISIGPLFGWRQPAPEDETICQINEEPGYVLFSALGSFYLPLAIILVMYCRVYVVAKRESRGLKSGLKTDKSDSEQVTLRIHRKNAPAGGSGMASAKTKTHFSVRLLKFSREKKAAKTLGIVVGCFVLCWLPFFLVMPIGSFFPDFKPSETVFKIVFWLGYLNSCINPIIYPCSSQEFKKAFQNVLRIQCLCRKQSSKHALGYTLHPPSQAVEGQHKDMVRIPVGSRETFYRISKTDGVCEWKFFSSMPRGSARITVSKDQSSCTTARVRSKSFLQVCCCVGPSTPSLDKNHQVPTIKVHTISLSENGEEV

[4] = Log KD α1D, single-component inhibition curve, given as log KD (negative), mean ± SE mean
[5] = Log KD α1D site 1, high-affinity component of two-component curve, control, used for selectivity
[6] = low-affinity component of two-component curve, control
[7] = percentage of inhibition through first component, control
[8] = two-component inhibition curve, proportion of site 1
[9] = single-component inhibition curve, given as log KD (negative), mean ± SE mean, read-out: Log KD α1B (converted)
[10] = single-component inhibition curve, given as log KD (negative), mean ± SE mean

Kd [1, 4]: 10700 nM | IC50 [2]: > 100000 nM
SMILES: COCCCC/C(=N\OCCN)c1ccc(C(F)(F)F)cc1 [Fluvoxamine]

Kd [1, 5]: 6.46 nM | Log KD α1D site 2 [1, 6]: −5.92 ± 0.06 | % site 1 α1D [1, 7]: 24.8 ± 3.1% site 1 | Kd [2, 9]: 67.6 nM
SMILES: O=C1[C@@H]2[C@H]3CC[C@H](C3)[C@@H]2C(=O)N1C[C@@H]1CCCC[C@H]1CN1CCN(c2nsc3ccccc23)CC1 [Lurasidone]
% site 1 α1D [1, 8]: -8.19 ± 0.10 -5.92 ± 0.06 24.8 ± 3.1% site 1

SMILES: CN1CCN2c3ncccc3Cc3ccccc3C2C1 (centres unmarked) [Mirtazepine]
Log KD α1B [2, 10]: −5.36 ± 0.03

Kd [1, 4]: 2340 nM | IC50 [2]: > 10000 nM
SMILES: Fc1ccc([C@@H]2CCNC[C@H]2COc2ccc3c(c2)OCO3)cc1 [Paroxetine]

Kd [1, 5]: 13.8 nM | Log KD α1D site 2 [1, 6]: −6.03 ± 0.19 | % site 1 α1D [1, 7]: 53.3 ± 4.1% site 1 | Kd [2, 9]: 37.2 nM
SMILES: OCCN1CCN(CCCN2c3ccccc3Sc3ccc(Cl)cc32)CC1 [Perphenazine]
% site 1 α1D [1, 8]: -7.86 ± 0.10 -6.03 ± 0.19 53.3 ± 4.1% site 1

SMILES: CC(COc1ccccc1)N(CCCl)Cc1ccccc1 (centres unmarked) [Phenoxybenzamine]
Kd [1]: 3.72 nM | Log KD α1D site 2 [1, 6]: −5.42 ± 0.08 | % site 1 α1D [1, 8]: -8.43 ± 0.19 -5.42 ± 0.08 39.1 ± 2.0% site 1 | Kd ([2]; high-affinity component of two-component curve, control, read-out: Log KD α1B site 1 (converted)): 20.4 nM | Log KD α1B site 2 [2, 6]: −5.57 ± 0.06 | % site 1, α1B ([2]; share of site 1 in the two-component inhibition curve): -7.69 ± 0.06 -5.57 ± 0.06 67.5 ± 2.5% site 1 | % site 1, α1B [2, 8]: -7.69 ± 0.06 -5.57 ± 0.06 67.5 ± 2.5% site 1

% site 1 α1D [1, 7]: 60.5 ± 3.8% site 1
SMILES: Cc1ccc(N(CC2=NCCN2)c2cccc(O)c2)cc1 [Phentolamine]

Kd [1, 4]: 1120 nM | Kd [2, 9]: 162 nM
SMILES: O=c1[nH]c2ccccc2n1C1CCN(CCCC(c2ccc(F)cc2)c2ccc(F)cc2)CC1 [Pimozide]

Kd [1, 4]: 295 nM | Kd [2, 9]: 132 nM
SMILES: CN1CCN(CCCN2c3ccccc3Sc3ccc(Cl)cc32)CC1 [Prochlorperazine]

Kd [1, 4]: 12900 nM | Kd ([2]; app: top concentration inhibited most but not all specific binding, curve extrapolated, read-out: Log KD α1B (apparent) (converted)): 105000 nM
SMILES: CC(C)NCC(O)COc1cccc2ccccc12 (centres unmarked) [Propranolol]

Kd [1, 4]: 331 nM | Kd [2, 9]: 61.7 nM
SMILES: OCCOCCN1CCN(C2=Nc3ccccc3Sc3ccccc32)CC1 [Quetiapine]

Log KD α1D ([1]; log KD from 3H-prazosin whole cell binding, CHO cells, mean ± s.e.mean): -7.89 ± 0.07
SMILES: COc1cc2nc(N3CCN(C(=O)COc4c(OC)cccc4C(C)C)CC3)nc(N)c2cc1OC [Rec15-2615]

Log KD α1D [1, 10]: −7.89 ± 0.07
SMILES: COc1cc2nc(N3CCN(C(=O)COc4c(OC)cccc4C(C)C)CC3)nc(N)c2cc1OC [Rec15‐2615]

SMILES: CCOc1ccccc1OCCN[C@H](C)Cc1ccc(OC)c(S(N)(=O)=O)c1 [Tamsulosin]
Log KD α1D site 2 [1]: −5.67 ± 0.15 | Log KD α1D site 2, +1 mmol/L sodium thiosulphate [1]: −5.60 ± 0.08 | effect of sodium thiosulfate preincubation on binding ([1]; 1 mmol/L sodium thiosulfate, tamsulosin at all three receptors (Table 2)): no effect | Kd ([1]; Log KD α1D site 1, +1 mmol/L sodium thiosulphate, two-component curve, high-affinity component): 0.776 nM | Kd [1, 5]: 0.661 nM | % site 1 α1D, +1 mmol/L sodium thiosulphate ([1]; two-component curve): 44.0 ± 2.8% | % site 1 α1D [1, 8]: -9.18 ± 0.08 -5.67 ± 0.15 54.6 ± 3.7% site 1 | Kd ([2]; Log KD α1B, +1 mmol/L sodium thiosulphate, ligand preincubated 30 min with thiosulphate, single-component curve (column Log KD site 1)): 7.41 nM | Kd [2, 9]: 7.59 nM

Kd [1, 4]: 19.5 nM
SMILES: COc1cc2nc(N3CCN(C(=O)C4CCCO4)CC3)nc(N)c2cc1OC (centres unmarked) [Terazosin]

Kd [1, 4]: 417 nM | Kd [2, 9]: 275 nM
SMILES: O=c1n(CCCN2CCN(c3cccc(Cl)c3)CC2)nc2ccccn12 [Trazodone]

Kd [1, 4]: 437 nM | Kd [2, 9]: 132 nM
SMILES: CN1CCN(CCCN2c3ccccc3Sc3ccc(C(F)(F)F)cc32)CC1 [Trifluoperazine]

Kd [1, 4]: 1020 nM | Kd [2, 9]: 794 nM
SMILES: CC(CN(C)C)CN1c2ccccc2CCc2ccccc21 (centres unmarked) [Trimipramine]

Log KD α1A [3]: −9.03 ± 0.04
SMILES: COc1cccc(OC)c1OCCNCC1COc2ccccc2O1 (centres unmarked) [WB4104]
